Our source for the IC50 and MIC values is patent US8124744B2, “Macrolide derivatives” (Taisho Pharmaceutical Co., Ltd., priority 2006, dated 2012).

For assay [1], the system named is pro MMP-9 protein. In words: Inhibitory activity against proMMP-9 protein production (TNF α-stimulated mouse peritoneal exudate cells, ELISA). In kind it is cell-based, C57BL/6J mice. The procedure:
(§1) To 7- to 9-week male C57BL/6J mice (purchased from CLEA Japan, Inc. or Japan SLC, Inc.), Zymosan A (SIGMA) derived from budding yeasts which is adjusted to be 1 mg/ml in a phosphate buffer solution (PBS, 10010-49, Invitrogen) was administered intraperitoneally at 1 ml per mouse to induce peritonitis. Three days later, filter-sterilized cell recovery buffer (2 mM EDTA, 0.5% bovine serum albumin, PBS, pH 7.4) was administered intraperitoneally at 5 ml per mouse to recover peritoneal exudata cells. The cells went through a cell strainer (70 μm nylon, FALCON) and were then washed twice with a Hanks solution (Invitrogen). The cells were suspended in 10% fetal calf serum-containing Dulbecco's modified Eagle's culture medium (Invitrogen). The suspension was seeded on a plate with 48 wells, after 6 hours, the culture medium was completely exchanged. After culturing for another 18 hours, test compounds were added at 0.02 to 20 μM of the final concentration. After 1 hour from the addition of the compounds, a tumor necrosis factor (TNF) α (R & D Systems) was added at 25 ng/ml of the final concentration, and 24 hours later, the culture supernatant was collected. The amount of pro MMP-9 protein in the supernatant was quantified by an enzyme-linked immunosorbent assay (ELISA) (R & D Systems), IC50 values of the test compounds on the increased amount by TNF α stimuli, were calculated by ORIGIN analysis software (trade name: OriginLab). In addition, minimal inhibitory concentration (MIC) of each test compounds (measured bacterium: Staphylococcus aureus ATCC29213) was measured. As a comparative agent […] A (clarithromycin) was used.
Background: An ELISA detects its analyte on a solid surface through an enzyme-linked reagent.

Assay [2] relates to Staphylococcus aureus ATCC29213. The assay is described as follows: Minimal inhibitory concentration (MIC). It is filed as cell-based. The protocol: as §1
[3] abbreviates: relative activity when the value of Comparative Agent 1 (IC50 = 10.04 ± 4.11 μM) is 10, on the increase of pro MMP-9 by TNF α 25 ng/ml, 24 hours, read-out: IC50 (μM)*.

Values after ≈ are worked out from the molar mass of the structure shown. Read-outs that look alike come from different tables or passages of the source.

One may read the IC50 as the concentration that inhibits the measured activity by half. Broadly, the MIC is the lowest concentration found to suppress growth. A high value points to weaker potency. On to `CC[C@H]1OC(=O)[C@H](C)[C@@H](O[C@H]2C[C@@](C)(OC)[C@@H](OC(C)=O)[C@H](C)O2)[C@H](C)[C@@H](O[C@@H]2O[C@H](C)C[C@H](N(C)C)[C@H]2OC)[C@@](C)(OC)C[C@@H](C)C(=O)[C@H](C)[C@H]2NC(=O)O[C@@]21C` [Example 148, 4″-O-acetyl-11-amino-11-deoxy-6,2′-di-O-methylerythromycin A 11,12-cyclic carbamate], for which, in assay [1] (setting [3]), the half-inhibitory concentration (IC50) turned out to be 7.68 µM. The compound further displayed an MIC in assay [2] above 128 µg/mL.

Turning to `CC[C@H]1OC(=O)[C@H](C)[C@@H](O[C@H]2C[C@@](C)(OC)[C@@H](OC(C)=O)[C@H](C)O2)[C@H](C)[C@@H](O[C@@H]2O[C@H](C)C[C@@H](N(C)Cc3ccncc3)[C@@H]2N(C)C)[C@@](C)(OC)C[C@@H](C)C(=O)[C@H](C)[C@@H](O)[C@]1(C)O` [Example 187, 4″-O-acetyl-3′-N-demethyl-2′-deoxy-2′-dimethylamino-3′-N-(4-pyridylmethylamino)-6-O-methylerythromycin A], the IC50 in assay [1] (setting [3]) was determined as 1.37 µM. The MIC in assay [2] was above 128 µg/mL.

For `CC[C@H]1OC(=O)[C@H](C)[C@@H](O[C@H]2C[C@@](C)(OC)[C@@H](OC(C)=O)[C@H](C)O2)[C@H](C)[C@@H](O[C@@H]2O[C@H](C)C[C@@H](N(C)Cc3ccccc3)[C@@H]2N(C)C)[C@@](C)(OC)C[C@@H](C)C(=O)[C@H](C)[C@@H](O)[C@]1(C)O` [Example 170, 4″-O-acetyl-3′-N-demethyl-2′-deoxy-2′-dimethylamino-3′-N-benzyl-6-O-methylerythromycin A], the IC50 in assay [1] (setting [3]) came out at 1.01 µM. Moreover, the MIC in assay [2] is above 128 µg/mL.

Regarding `CC[C@H]1OC(=O)[C@H](C)[C@@H](O[C@H]2C[C@@](C)(OC)[C@@H](OC(C)=O)[C@H](C)O2)[C@H](C)[C@@H](O[C@@H]2O[C@H](C)C[C@@H](N3CCOCC3)[C@@H]2N(C)C)[C@@](C)(OC)C[C@@H](C)C(=O)[C@H](C)[C@@H](O)[C@]1(C)O` [Example 177, 4″-O-acetyl-3′-dedimethylamino-2′-deoxy-2′-dimethylamino-3′-(4-morpholino)-6-O-methylerythromycin A], the IC50 in assay [1] (setting [3]) is 4.42 µM. In assay [2], this compound returned a minimum inhibitory concentration (MIC) above 128 µg/mL.

Consider `CC[C@H]1OC(=O)[C@H](C)[C@@H](O[C@H]2C[C@@](C)(OC)[C@@H](O)[C@H](C)O2)[C@H](C)[C@@H](O[C@@H]2O[C@H](C)C[C@@H](N(C)CCO)[C@@H]2N(C)C)[C@@](C)(OC)C[C@@H](C)C(=O)[C@H](C)[C@@H](O)[C@]1(C)O` [Example 173, 3′-N-demethyl-2′-deoxy-2′-dimethylamino-3′-N-(2-hydroxyethyl)-6-O-methylerythromycin A], for which the IC50 in assay [1] (setting [3]) came out at 4.95 µM. The compound further showed an MIC in assay [2] above 128 µg/mL.

Consider `CC[C@H]1OC(=O)[C@H](C)[C@@H](O[C@H]2C[C@@](C)(OC)[C@@H](O)[C@H](C)O2)[C@H](C)[C@@H](O[C@@H]2O[C@H](C)C[C@H](N3CCOCC3)[C@H]2OC)[C@@](C)(OC)C[C@@H](C)C(=O)[C@H](C)[C@@H](O)[C@]1(C)O` [Example 139, 3′-N-dedimethylamino-3-(4-morpholino)-6,2′-di-O-methylerythromycin A], for which the half-maximal inhibitory concentration (IC50) in assay [1] (setting [3]) amounted to 5.51 µM. The same compound had an MIC in assay [2] above 128 µg/mL.

Consider `CC[C@H]1OC(=O)[C@H](C)[C@@H](O[C@H]2C[C@@](C)(OC)[C@@H](OC(C)=O)[C@H](C)O2)[C@H](C)[C@@H](O[C@@H]2O[C@H](C)C[C@H](N(C)C)[C@H]2OC)[C@@](C)(OC)C[C@@H](C)[C@H](OC(=O)CCN(C)C)[C@H](C)[C@@H](OC(=O)CCN(C)C)[C@]1(C)O` [Compound W of Example 147, 4″-O-acetyl-9-deoxo-9-(S)-(3-dimethylaminopropionyloxy)-11-O-(3-dimethylaminopropionyl)-6,2′-di-O-methylerythromycin A], for which, in assay [1] (setting [3]), the IC50 was determined as 6.56 µM. Moreover, the MIC in assay [2] was above 128 µg/mL.

Regarding `CC[C@H]1OC(=O)[C@H](C)[C@@H](O[C@H]2C[C@@](C)(OC)[C@@H](O)[C@H](C)O2)[C@H](C)[C@@H](O[C@@H]2O[C@H](C)C[C@H](N(C)C)[C@H]2OCCCN(C)C)[C@@](C)(OC)C[C@@H](C)C(=O)[C@H](C)[C@@H](O)[C@]1(C)O` [Example 115, 2′-O-(3-dimethylaminopropyl)-6-O-methylerythromycin A], the IC50 in assay [1] (setting [3]) was found to be 3.88 µM. The same compound yielded an MIC in assay [2] above 128 µg/mL.

As to `CC[C@H]1OC(=O)[C@H](C)[C@@H](O[C@H]2C[C@@](C)(OC)[C@@H](O)[C@H](C)O2)[C@H](C)[C@@H](O[C@@H]2O[C@H](C)C[C@@H](N3CCOCC3)[C@@H]2N(C)C)[C@@](C)(OC)C[C@@H](C)C(=O)[C@H](C)[C@@H](O)[C@H]1C` [Example 210, 3′-dedimethylamino-2′-deoxy-2′-dimethylamino-3′-(4-morpholino)-6-O-methylerythromycin B], in assay [1] (setting [3]), the IC50 was found to be 4.63 µM. The compound also gave a minimal inhibitory concentration (MIC) in assay [2] of 128 µg/mL (≈ 160 µM).

Regarding `CCO[C@H]1[C@H](O[C@@H]2[C@@H](C)[C@H](O[C@@H]3C[C@@](C)(OC)[C@@H](O)[C@H](C)O3)[C@@H](C)C(=O)O[C@H](CC)[C@@](C)(O)[C@H](O)[C@@H](C)C(=O)[C@H](C)C[C@]2(C)OC)O[C@H](C)C[C@@H]1N(C)C` [Example 105, 2′-O-ethyl-6-O-methylerythromycin A], the IC50 in assay [1] (setting [3]) worked out at 4.38 µM. Besides, in assay [2], the MIC is above 128 µg/mL.

Turning to `CC[C@H]1OC(=O)[C@H](C)[C@@H](O[C@H]2C[C@@](C)(OC)[C@@H](OC(C)=O)[C@H](C)O2)[C@H](C)[C@@H](O[C@@H]2O[C@H](C)C[C@@H](N3CCCC(O)C3)[C@@H]2N(C)C)[C@@](C)(OC)C[C@@H](C)C(=O)[C@H](C)[C@@H](O)[C@]1(C)O` (mixture of isomers) [Example 196, 4″-O-acetyl-3′-dedimethylamino-2′-deoxy-2′-dimethylamino-3-((±)-3-hydroxypiperidin-1-yl)-6-O-methylerythromycin A], the concentration for half-maximal inhibition (IC50) in assay [1] (setting [3]) turned out to be 2.51 µM. This compound displayed an MIC in assay [2] above 128 µg/mL.

As for `CC[C@H]1OC(=O)[C@H](C)[C@@H](O[C@H]2C[C@@](C)(OC)[C@@H](OC(C)=O)[C@H](C)O2)[C@H](C)[C@@H](O[C@@H]2O[C@H](C)C[C@@H](N3CC[C@H](O)C3)[C@@H]2N(C)C)[C@@](C)(OC)C[C@@H](C)C(=O)[C@H](C)[C@@H](O)[C@]1(C)O` [Compound X of Example 200, 4″-O-acetyl-3′-dedimethylamino-2′-deoxy-2′-dimethylamino-3′-((S)-3-hydroxypyrrolidin-1-yl)-6-O-methylerythromycin A], the IC50 in assay [1] (setting [3]) was 2.03 µM. In assay [2], this compound came in with an MIC above 128 µg/mL.

Turning to `CC[C@H]1OC(=O)[C@H](C)[C@@H](O[C@H]2C[C@@](C)(OC)[C@@H](OC(C)=O)[C@H](C)O2)[C@H](C)[C@@H](O[C@@H]2O[C@H](C)C[C@H](N(C)C)[C@H]2OCCCN2CCOCC2)[C@@](C)(OC)C[C@@H](C)C(=O)[C@H](C)[C@@H](O)[C@]1(C)O` [Example 119, 4″-O-acetyl-2′-O-(3-(4-morpholino)propyl)-6-O-methylerythromycin A], in assay [1] (setting [3]), the IC50 came out at 4.42 µM. The MIC in assay [2] is above 128 µg/mL.

For the compound `CC[C@H]1OC(=O)[C@H](C)[C@@H](O[C@H]2C[C@@](C)(OC)[C@@H](O)[C@H](C)O2)[C@H](C)[C@@H](O[C@@H]2O[C@H](C)C[C@H](N)[C@H]2OC)[C@@](C)(OC)C[C@@H](C)C(=O)[C@H](C)[C@@H](O)[C@]1(C)O` [Example 138, 3′-N-dedimethyl-6,2′-di-O-methylerythromycin A], the IC50 in assay [1] (setting [3]) was determined as 3.95 µM. The compound also showed an MIC in assay [2] above 128 µg/mL.

For `CC[C@H]1OC(=O)[C@H](C)[C@@H](O[C@H]2C[C@@](C)(OC)[C@@H](OC(C)=O)[C@H](C)O2)[C@H](C)[C@@H](O[C@@H]2O[C@H](C)C[C@@H](N3CCC(O)CC3)[C@@H]2N(C)C)[C@@](C)(OC)C[C@@H](C)C(=O)[C@H](C)[C@@H](O)[C@]1(C)O` [Example 164, 4″-O-acetyl-3′-dedimethylamino-2′-deoxy-2′-dimethylamino-3′-(4-hydroxypiperidin-1-yl)-6-O-methylerythromycin A], the IC50 in assay [1] (setting [3]) stood at 2.77 µM. In assay [2], this compound returned an MIC above 128 µg/mL.

As to `CC[C@H]1OC(=O)[C@H](C)[C@@H](O[C@H]2C[C@@](C)(OC)[C@@H](O)[C@H](C)O2)[C@H](C)[C@@H](O[C@@H]2O[C@H](C)C[C@H](N(C)C)[C@H]2O)[C@](C)(OC)C[C@@H](C)C(=O)[C@H](C)[C@@H](O)[C@]1(C)O` [Comparative Agent 1, 6-O-methylerythromycin A, reference compound], the IC50 in assay [1] (actual value of Comparative Agent 1 (table footnote), not normalised, read-out: IC50) is 10 µM; in assay [1] (setting [3]) it was 10 µM. The compound also displayed an MIC in assay [2] of 0.25 µg/mL (≈ 0.334 µM).

For the compound `CC[C@H]1OC(=O)[C@H](C)[C@@H](O[C@H]2C[C@@](C)(OC)[C@@H](OC(C)=O)[C@H](C)O2)[C@H](C)[C@@H](O[C@@H]2O[C@H](C)C[C@@H](N(C)Cc3cccnc3)[C@@H]2N(C)C)[C@@](C)(OC)C[C@@H](C)C(=O)[C@H](C)[C@@H](O)[C@]1(C)O` [Example 189, 4″-O-acetyl-3′-N-demethyl-2′-deoxy-2′-dimethylamino-3′-N-(3-pyridylmethyl)-O-methylerythromycin A], the IC50 in assay [1] (setting [3]) was determined as 3.38 µM. Moreover, the MIC in assay [2] was above 128 µg/mL.
